Results reported in patent publication US10913781B2, “Pepducin design and use” (Tufts Medical Center, Inc., priority 2011, dated 2021).
One block for each molecule: values may come before it. Peptide text beside a SMILES is read from it. * marks the point of attachment. Palmitoyl = CCCCCCCCCCCCCCCC(=O)*

Columns and labels:
mast cell tryptase [1] = assay: Human neutrophil chemotaxis toward mast cell conditioned media (tryptase inhibitor); type: cell-based; conditions: 10 mM APC-366; 30 min
Procedure: (A) Mast cells were treated with 2 mg/mL of mast cell degranulating agent 48/80 or 2% 1-carrageenan/4% kaolin. […] (B) P2pal-18S inhibits human neutrophil chemotaxis (n=6) to mast cell media. Human neutrophils were incubated with […] P2pal-18S, or […] mast cell tryptase inhibitor APC-366 and allowed to migrate 30 min toward CM from mast cells. (C) C57BL/6 mice (n=5) were pretreated with the tryptase inhibitor APC-366 (5 mg/kg, s.c.) or vehicle (20% DMSO) and then challenged with intraplantar injection of 1-carrageenan/kaolin. (D) Mast cell conditioned media (30 μL of 1-carrageenan/kaolin stimulated media) was injected into the hindpaws of C57BL/6 mice treated with 10 mg/kg P2pal-18S or vehicle (n=5). Data represent mean±SEM. #, P=0.07, *, P<0.05 and **, P<0.005. (E) Mast cell-deficient mice have a significant reduction in 1-carrageenan/kaolin induced paw edema (8 h time point, n=4-6) as compared to littermate controls. Mast-cell deficient mice or littermate controls with intact mast cells were treated with P2pal-18S (10 mg/kg, s.c.) or vehicle and hind paws challenged with 1-carrageenan/kaolin irritant. Error bars represent mean±SEM. […]

mast cell tryptase [2] = target: T1, mast cell tryptase (Mus musculus, UniProt P21845); assay: λ-carrageenan/kaolin-induced mouse paw edema (tryptase inhibitor); type: in vivo; conditions: C57BL/6 mice; 5 mg/kg s.c.
T1 construct: from tissue; host or cells: C57BL/6 mouse, hind paw in vivo
T1 sequence (P21845 32-276): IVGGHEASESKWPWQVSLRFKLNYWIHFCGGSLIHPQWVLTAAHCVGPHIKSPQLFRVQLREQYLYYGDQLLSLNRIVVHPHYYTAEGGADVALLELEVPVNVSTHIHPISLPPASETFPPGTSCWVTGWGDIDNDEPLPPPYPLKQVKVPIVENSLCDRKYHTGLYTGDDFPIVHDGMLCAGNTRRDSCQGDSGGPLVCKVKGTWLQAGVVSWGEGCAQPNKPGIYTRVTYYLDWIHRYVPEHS
Procedure: (A) Mast cells were treated with 2 mg/mL of mast cell degranulating agent 48/80 or 2% 1-carrageenan/4% kaolin. […] (B) P2pal-18S inhibits human neutrophil chemotaxis (n=6) to mast cell media. Human neutrophils were incubated with […] P2pal-18S, or […] mast cell tryptase inhibitor APC-366 and allowed to migrate 30 min toward CM from mast cells. (C) C57BL/6 mice (n=5) were pretreated with the tryptase inhibitor APC-366 (5 mg/kg, s.c.) or vehicle (20% DMSO) and then challenged with intraplantar injection of 1-carrageenan/kaolin. (D) Mast cell conditioned media (30 μL of 1-carrageenan/kaolin stimulated media) was injected into the hindpaws of C57BL/6 mice treated with 10 mg/kg P2pal-18S or vehicle (n=5). Data represent mean±SEM. #, P=0.07, *, P<0.05 and **, P<0.005. (E) Mast cell-deficient mice have a significant reduction in 1-carrageenan/kaolin induced paw edema (8 h time point, n=4-6) as compared to littermate controls. Mast-cell deficient mice or littermate controls with intact mast cells were treated with P2pal-18S (10 mg/kg, s.c.) or vehicle and hind paws challenged with 1-carrageenan/kaolin irritant. Error bars represent mean±SEM.
To examine whether mast cells and mast cell tryptase were activating PAR2 in the paw edema model in vivo, mice were depleted of mast cells through pretreatment with compound 48/80 (Carvalho M et al. Eur J Pharmacol (2005), 525: 161-169). […]

PAR4 = target: T2, PAR4 (Homo sapiens, UniProt Q96RI0); assay: [3H]-InsP formation in COS7 cells transfected with PAR4; type: cell-based; set-up: expressed in transfected cells; host or cells: COS7; conditions: 100 μM AYPGKF, 30 min
T2 sequence (Q96RI0 18-385): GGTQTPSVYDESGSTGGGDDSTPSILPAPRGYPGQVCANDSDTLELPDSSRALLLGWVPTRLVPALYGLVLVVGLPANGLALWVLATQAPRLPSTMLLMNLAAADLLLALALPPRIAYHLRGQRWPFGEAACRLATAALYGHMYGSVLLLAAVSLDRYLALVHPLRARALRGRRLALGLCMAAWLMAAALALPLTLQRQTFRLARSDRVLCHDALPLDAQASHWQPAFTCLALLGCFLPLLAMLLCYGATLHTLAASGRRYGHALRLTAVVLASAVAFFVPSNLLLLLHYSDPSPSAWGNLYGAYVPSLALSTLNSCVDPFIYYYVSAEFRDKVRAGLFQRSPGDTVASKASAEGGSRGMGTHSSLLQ
Procedure: (§1) (A) PAR2 antagonist pepducins P2pal-18S and P2pal-14GQ inhibit calcium flux induced by PAR2 (SLIGRL) (SEQ ID NO:4) but not PAR1 (TFLLRN) (SEQ ID NO:2) agonists. SW620 cells were stably transfected with PAR1 and pretreated for 1 min with various concentrations of P2pal-18S or P2pal-14GQ and then stimulated with 30 μM PAR agonist. […] Cells were stimulated with 1 μM TFLLRN (SEQ ID NO:2), 1 μM SLIGRL (SEQ ID NO:4) or 100 μM AYPGKF (SEQ ID NO:5) and [^3H]-InsP formation measured over 30 min. (C) SW620 cells were treated with the indicated concentrations of P2pal-18S or P2pal-14GQ in the upper well of an 8-μm pore Boyden chamber and allowed to migrate for 18 h towards 10 μM of the PAR2 specific agonist SLIGRL in the lower chamber. The migration to RPMI/0.1% FBS represents random migration. (D) Migration of HEK cells transiently transfected with PAR2 (wild-type, WT), or PAR2-R36A/PAR2-RQ toward chemotactic gradients of 30 nM trypsin in the absence or presence of the indicated concentration of P2pal-18S for 18 h in a transwell apparatus ([…]). Data (n=2-4) are mean±SEM. *, P<0.05 and **, P<0.005.

PAR2 [3] = target: T3, PAR2 (Homo sapiens, UniProt P55085); assay: SW620 cell migration toward SLIGRL (Boyden chamber, 18 h); type: cell-based; set-up: SW620 colon adenocarcinoma cells that endogenously express PAR2; endogenous in cells; host or cells: SW620 (in A7 the SW620 cells were additionally stably transfected with PAR1); conditions: 10 μM SLIGRL
Procedure: as §1
Target sequence in this assay (P55085 26-397): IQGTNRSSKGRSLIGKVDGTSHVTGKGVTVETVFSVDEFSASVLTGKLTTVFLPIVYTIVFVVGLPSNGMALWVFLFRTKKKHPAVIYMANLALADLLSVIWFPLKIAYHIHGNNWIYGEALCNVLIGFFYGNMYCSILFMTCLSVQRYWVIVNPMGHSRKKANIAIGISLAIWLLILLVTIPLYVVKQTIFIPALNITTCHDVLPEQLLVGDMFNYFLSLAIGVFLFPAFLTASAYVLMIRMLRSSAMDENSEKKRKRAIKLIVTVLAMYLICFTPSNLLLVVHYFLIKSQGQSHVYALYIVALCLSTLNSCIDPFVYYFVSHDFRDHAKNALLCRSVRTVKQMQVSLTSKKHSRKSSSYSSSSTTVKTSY

PAR2 [4] = target: T3, PAR2; assay: Calcium flux screen for PAR2 pepducin agonist and antagonist activity in SW620 cells; type: cell-based; set-up: SW620 colon adenocarcinoma cells that endogenously express PAR2; endogenous in cells; host or cells: SW620 (in A7 the SW620 cells were additionally stably transfected with PAR1)
Target sequence in this assay (P55085 26-397): as above
Procedure: (§2) (A) Agonist and antagonist activity of third intracellular (i3) loop PAR2 pepducins (structure shown on top) using calcium flux assays with SW620 colon adenocarcinoma cells that endogenously express PAR2. Each column of three calcium flux traces corresponds to the i3 pepducin sequence shown above. The top row is the agonist activity of 3-4 μM pepducin and the middle row is the agonist activity of 14-15 μM pepducin. […] Final concentration of DMSO vehicle was 0.2%. […] (C) Agonist activity for each pepducin from (A) is reported as initial velocity of calcium flux at 4 μM pepducin (†), or at 14-15 μM pepducin (‡).

PAR1 [5] = target: T4, PAR1 (Homo sapiens, UniProt P25116); assay: [3H]-InsP formation in COS7 cells transfected with PAR1; type: cell-based; set-up: expressed in transfected cells; host or cells: COS7; conditions: 1 μM TFLLRN, 30 min
T4 sequence (P25116 22-425): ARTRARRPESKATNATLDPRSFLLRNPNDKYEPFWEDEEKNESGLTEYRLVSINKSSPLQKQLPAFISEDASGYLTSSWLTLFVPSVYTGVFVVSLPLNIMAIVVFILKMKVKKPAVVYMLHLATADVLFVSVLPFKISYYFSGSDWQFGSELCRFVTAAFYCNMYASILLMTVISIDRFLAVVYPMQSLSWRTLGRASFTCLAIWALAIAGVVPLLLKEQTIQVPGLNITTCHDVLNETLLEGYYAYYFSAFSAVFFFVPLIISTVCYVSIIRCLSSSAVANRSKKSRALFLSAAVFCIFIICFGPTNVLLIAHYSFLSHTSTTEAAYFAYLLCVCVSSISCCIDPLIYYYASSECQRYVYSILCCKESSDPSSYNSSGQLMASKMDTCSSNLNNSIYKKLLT
Procedure: as §1

PAR1 [6] = target: T4, PAR1; assay: Calcium flux in SW620 cells stably transfected with PAR1, TFLLRN stimulus; type: cell-based; conditions: 30 μM TFLLRN
Procedure: as §1

PAR2 [7] = target: T3, PAR2; assay: Agonist | (%)^‡; set-up: SW620 colon adenocarcinoma cells that endogenously express PAR2; endogenous in cells; host or cells: SW620 (in A7 the SW620 cells were additionally stably transfected with PAR1)
Target sequence in this assay (P55085 26-397 limits assumed): as the sequence (P55085 26-397) above

PAR2 [8] = target: T3, PAR2; assay: Agonist | (%)^†; set-up: SW620 colon adenocarcinoma cells that endogenously express PAR2; endogenous in cells; host or cells: SW620 (in A7 the SW620 cells were additionally stably transfected with PAR1); conditions: 4 µM
Target sequence in this assay (P55085 26-397 limits assumed): as the sequence (P55085 26-397) above
Procedure: as §2

PAR1 [9] = target: T4, PAR1; assay: Lung cancer cell line migration toward NIH-3T3 conditioned media (Boyden chamber); type: cell-based; set-up: endogenous in cells; host or cells: A549, HOP62, H1299, H522, H226, HOP92 lung carcinoma lines; conditions: A549, HOP62, H1299; pepducins in lower well
Excerpt: FIG. 11 illustrates PAR expression profile in lung cancer. Lung cancer cell lines (n=7) from the NCI-60 panel were characterized for surface expression of PAR1, PAR2, PAR3, and PAR4 (A) as previously described in Nguyen et al., 2006. (B): PAR mRNA expression profile in patient samples. Quantitative real-time PCR analysis of PAR1 to PAR4 (corrected for actin expression as internal control) and expressed as fold increase over nonmalignant lung tissue. Migration of lung carcinoma cell lines toward fibroblast conditioned media is expressed as cell number ±SD. (C): Silencing of PAR1 expression in A549 and HOP62 cells with shPAR1 or vector control. Surface expression of PAR1 was determined by flow cytometry using SFLLR-Ab. (D): Migration of A549 and HOP62 lung cancer cells toward NIH-3T3 conditioned media supplemented with RWJ-56110 (10 μmol/L) and SCH7979 (50 μmol/L) or vehicle (0.2% dimethyl sulfoxide). Migration of lung cancer cells treated with shPAR1 treatment or appropriate controls toward NIH-3T3 conditioned media. Basal migration toward conditioned media (vehicle treated or vector control) was normalized to 100%. *P<0.05, **P<0.01.
FIG. 12 illustrates that PAR1 is a promigratory factor in lung cancer cells. […] (G): Cell from primary lung tumors or nonmalignant control were pretreated with PAR1 pepducins and migration was determined (*P<0.05, **P<0.01). […]

- Protection in λ-carrageenan/kaolin-induced paw edema (mast cell tryptase [2]): 40%
Molecule: NC(=O)[C@@H]1CCCN1C(=O)[C@H](CCCN=C(N)N)NC(=O)c1ccc2ccccc2c1O [APC-366]
- Inhibition of chemotactic migration toward tryptase-containing mast cell media (mast cell tryptase [1]): completely inhibited

- Inhibition of InsP signaling from PAR4 (PAR4): do not inhibit
- Antagonist activity (inhibition of SLIGRL calcium flux, area under the curve) (PAR2 [4]; 6 μM pepducin, 1 min pretreatment, against 100 μM SLIGRL): 53%
- Inhibition of InsP signaling from PAR1 (PAR1 [5]): do not inhibit
- Inhibition of PAR1 calcium flux (PAR1 [6]): selective for PAR2 and not PAR1
- Agonist | (%)^‡ (PAR2 [7]): 2%
- Agonist | (%)^† (PAR2 [8]): 3%
Molecule: CCCCCCCCCCCCCCCC(=O)NCC(=O)N[C@@H](CC(=O)O)C(=O)N[C@@H](CCC(=O)O)C(=O)N[C@@H](CC(N)=O)C(=O)N[C@@H](CO)C(=O)N[C@@H](CCC(=O)O)C(=O)N[C@@H](CCCCN)C(=O)N[C@@H](CCCCN)C(=O)N[C@@H](CCCNC(=N)N)C(=O)N[C@@H](CCCCN)C(=O)N[C@@H](CCC(N)=O)C(=O)N[C@@H](C)C(=O)N[C@H](C(=O)N[C@@H](CCCCN)C(N)=O)[C@@H](C)CC [P2pal-14GQ] (Palmitoyl-GDENSEKKRKQAIK-NH2)
- Suppression of SW620 migration to SLIGRL (PAR2 [3]): not as efficacious in suppressing migration of SW620 cells to SLIGRL as compared to P2pal-18S
- Agonist activity (calcium flux) (PAR2 [4]; 3-4 μM and 14-15 μM pepducin): agonist activity remained insignificant or insubstantial

- Suppression of migration of PAR1-expressing adenocarcinomas (PAR1 [9]): no effect on migration
Molecule: P1pal-19EE: negative control PAR1 i3 pepducin, 19 residues, S309 to E and A311 to E; SEQ ID NO:27 (Palmitoyl-ECESSSAEANRSKKERELF-NH2)
